The target in test [1] is Muscarinic acetylcholine receptor M3 (Homo sapiens, UniProt P20309).
For test [2], the target named is cGMP-inhibited 3',5'-cyclic phosphodiesterase 3A (Homo sapiens, UniProt Q14432). The test is classed as functional.
For test [3], the target named is T1, Neuropeptide Y receptor type 1 (Homo sapiens, UniProt P25929).
T1 sequence (P25929 whole entry): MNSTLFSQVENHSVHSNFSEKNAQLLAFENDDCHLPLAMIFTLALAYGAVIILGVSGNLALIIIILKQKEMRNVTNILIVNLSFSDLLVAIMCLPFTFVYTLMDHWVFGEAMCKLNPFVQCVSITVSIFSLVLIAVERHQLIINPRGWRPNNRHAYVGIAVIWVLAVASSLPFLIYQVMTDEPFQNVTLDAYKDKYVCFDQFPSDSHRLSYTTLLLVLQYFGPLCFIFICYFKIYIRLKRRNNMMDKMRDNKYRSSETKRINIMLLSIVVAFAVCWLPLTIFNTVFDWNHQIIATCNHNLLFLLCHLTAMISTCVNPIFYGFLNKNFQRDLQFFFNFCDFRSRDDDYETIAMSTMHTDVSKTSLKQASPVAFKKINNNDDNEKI

The next test concerns the target Vasopressin V1a receptor (Homo sapiens, UniProt P37288).
The target of test [4] is T2, Alpha-2C adrenergic receptor (Homo sapiens, UniProt P18825).
T2 sequence (P18825 whole entry): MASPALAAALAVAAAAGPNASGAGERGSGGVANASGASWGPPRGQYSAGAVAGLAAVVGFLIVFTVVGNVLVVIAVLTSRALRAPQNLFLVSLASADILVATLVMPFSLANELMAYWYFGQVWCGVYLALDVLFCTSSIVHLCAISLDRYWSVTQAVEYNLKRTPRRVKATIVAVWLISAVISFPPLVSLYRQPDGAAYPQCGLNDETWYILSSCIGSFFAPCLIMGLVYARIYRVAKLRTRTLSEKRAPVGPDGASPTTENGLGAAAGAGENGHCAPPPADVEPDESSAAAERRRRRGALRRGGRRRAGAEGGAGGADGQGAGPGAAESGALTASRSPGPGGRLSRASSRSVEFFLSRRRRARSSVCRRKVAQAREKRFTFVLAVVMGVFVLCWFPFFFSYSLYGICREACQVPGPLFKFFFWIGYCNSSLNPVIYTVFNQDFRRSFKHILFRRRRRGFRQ
The test is classed as functional.

In the next test the target is D(1A) dopamine receptor (Homo sapiens, UniProt P21728). The test is classed as functional, cell-based.
D(1A) dopamine receptor, sequence (P21728 whole entry): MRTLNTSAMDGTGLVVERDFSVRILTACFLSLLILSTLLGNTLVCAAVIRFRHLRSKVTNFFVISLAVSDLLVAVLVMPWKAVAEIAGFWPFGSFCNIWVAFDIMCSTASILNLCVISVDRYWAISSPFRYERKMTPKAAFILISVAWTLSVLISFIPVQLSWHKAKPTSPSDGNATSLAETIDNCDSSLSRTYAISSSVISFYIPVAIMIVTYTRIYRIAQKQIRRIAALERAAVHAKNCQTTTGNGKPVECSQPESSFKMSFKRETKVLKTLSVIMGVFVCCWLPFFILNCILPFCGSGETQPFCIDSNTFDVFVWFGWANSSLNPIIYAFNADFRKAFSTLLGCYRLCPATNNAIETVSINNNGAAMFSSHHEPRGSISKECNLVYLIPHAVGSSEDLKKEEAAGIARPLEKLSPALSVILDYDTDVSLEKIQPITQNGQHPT
In test [5] the target is T3, Alpha-2B adrenergic receptor (Homo sapiens, UniProt P18089).
T3 sequence (P18089 whole entry): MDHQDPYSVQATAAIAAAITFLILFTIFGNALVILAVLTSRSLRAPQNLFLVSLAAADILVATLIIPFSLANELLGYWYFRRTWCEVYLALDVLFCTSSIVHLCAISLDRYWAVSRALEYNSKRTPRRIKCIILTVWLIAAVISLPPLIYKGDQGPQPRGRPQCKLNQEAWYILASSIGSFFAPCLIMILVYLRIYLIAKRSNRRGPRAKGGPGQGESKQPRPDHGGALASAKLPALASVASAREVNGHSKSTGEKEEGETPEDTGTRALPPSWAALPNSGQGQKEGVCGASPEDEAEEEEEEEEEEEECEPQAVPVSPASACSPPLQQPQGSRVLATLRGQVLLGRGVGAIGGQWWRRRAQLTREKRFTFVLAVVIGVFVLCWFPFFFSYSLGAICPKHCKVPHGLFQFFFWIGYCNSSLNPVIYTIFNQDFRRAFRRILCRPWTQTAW

Test [6] has as its target Growth hormone secretagogue receptor type 1 (Homo sapiens, UniProt Q92847).
In another test the target is T4, Adenosine receptor A1 (Homo sapiens, UniProt P30542).
T4 sequence (P30542 whole entry): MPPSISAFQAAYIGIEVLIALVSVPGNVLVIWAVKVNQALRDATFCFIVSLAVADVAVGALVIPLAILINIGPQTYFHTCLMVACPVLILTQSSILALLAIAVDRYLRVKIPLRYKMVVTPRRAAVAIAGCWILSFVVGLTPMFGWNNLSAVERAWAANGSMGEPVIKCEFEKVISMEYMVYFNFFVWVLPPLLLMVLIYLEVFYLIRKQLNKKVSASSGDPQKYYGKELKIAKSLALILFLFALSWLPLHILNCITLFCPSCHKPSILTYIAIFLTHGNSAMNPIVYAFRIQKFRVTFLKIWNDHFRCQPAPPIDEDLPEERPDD

The target of another test is Motilin receptor (Homo sapiens, UniProt O43193).
Motilin receptor, sequence (O43193 whole entry): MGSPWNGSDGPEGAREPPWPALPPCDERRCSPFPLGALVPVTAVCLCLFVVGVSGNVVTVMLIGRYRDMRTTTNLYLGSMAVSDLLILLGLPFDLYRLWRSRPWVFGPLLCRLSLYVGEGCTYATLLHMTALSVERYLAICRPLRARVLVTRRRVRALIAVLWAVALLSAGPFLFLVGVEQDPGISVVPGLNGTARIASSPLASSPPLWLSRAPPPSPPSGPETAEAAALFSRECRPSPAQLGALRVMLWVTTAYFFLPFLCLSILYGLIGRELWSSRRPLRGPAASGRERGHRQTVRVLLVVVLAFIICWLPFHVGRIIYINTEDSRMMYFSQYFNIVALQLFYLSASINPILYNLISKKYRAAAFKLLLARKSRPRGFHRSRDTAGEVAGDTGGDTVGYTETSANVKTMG
For test [7], the target named is T5, Prostaglandin G/H synthase 1 (Rattus norvegicus, UniProt Q63921).
T5 sequence (Q63921 whole entry): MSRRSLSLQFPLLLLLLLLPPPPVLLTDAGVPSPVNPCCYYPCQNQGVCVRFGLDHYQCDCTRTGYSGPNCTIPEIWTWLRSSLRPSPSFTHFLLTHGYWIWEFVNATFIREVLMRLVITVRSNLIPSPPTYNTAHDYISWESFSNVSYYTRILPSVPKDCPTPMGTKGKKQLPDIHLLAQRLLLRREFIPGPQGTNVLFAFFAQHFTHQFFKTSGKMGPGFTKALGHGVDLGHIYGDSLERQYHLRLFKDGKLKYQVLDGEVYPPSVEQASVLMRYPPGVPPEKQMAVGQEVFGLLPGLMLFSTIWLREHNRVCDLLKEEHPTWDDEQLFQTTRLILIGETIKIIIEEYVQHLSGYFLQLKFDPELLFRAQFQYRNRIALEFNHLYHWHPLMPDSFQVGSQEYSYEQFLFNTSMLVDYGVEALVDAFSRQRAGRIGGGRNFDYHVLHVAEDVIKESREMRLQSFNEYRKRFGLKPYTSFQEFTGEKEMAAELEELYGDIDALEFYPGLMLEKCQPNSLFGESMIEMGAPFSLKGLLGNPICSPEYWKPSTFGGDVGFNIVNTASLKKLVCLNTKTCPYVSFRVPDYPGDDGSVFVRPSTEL
The test is classed as functional.

Each structure is given as a SMILES string.
Note: assay procedure not described here.

Vasopressin V1a receptor, sequence (P37288 whole entry): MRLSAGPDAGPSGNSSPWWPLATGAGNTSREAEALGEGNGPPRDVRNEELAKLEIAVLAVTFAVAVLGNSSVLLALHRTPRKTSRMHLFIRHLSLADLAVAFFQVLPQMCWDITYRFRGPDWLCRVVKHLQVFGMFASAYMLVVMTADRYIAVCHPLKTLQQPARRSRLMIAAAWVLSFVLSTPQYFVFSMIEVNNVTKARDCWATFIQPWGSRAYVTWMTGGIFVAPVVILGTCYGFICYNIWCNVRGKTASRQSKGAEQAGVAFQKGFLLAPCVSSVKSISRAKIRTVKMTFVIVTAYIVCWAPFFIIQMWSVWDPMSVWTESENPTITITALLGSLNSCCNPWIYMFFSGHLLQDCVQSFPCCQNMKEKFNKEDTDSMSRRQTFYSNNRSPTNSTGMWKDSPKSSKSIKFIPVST
Growth hormone secretagogue receptor type 1, sequence (Q92847 whole entry): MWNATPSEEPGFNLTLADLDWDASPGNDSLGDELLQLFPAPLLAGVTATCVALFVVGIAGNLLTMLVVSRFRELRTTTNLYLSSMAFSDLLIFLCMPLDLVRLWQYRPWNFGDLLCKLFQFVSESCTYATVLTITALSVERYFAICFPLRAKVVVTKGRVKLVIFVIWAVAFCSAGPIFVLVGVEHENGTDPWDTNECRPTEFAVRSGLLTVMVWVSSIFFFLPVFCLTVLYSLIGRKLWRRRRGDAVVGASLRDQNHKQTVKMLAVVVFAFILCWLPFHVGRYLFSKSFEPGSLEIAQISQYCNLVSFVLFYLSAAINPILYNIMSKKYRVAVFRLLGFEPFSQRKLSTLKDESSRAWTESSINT
cGMP-inhibited 3',5'-cyclic phosphodiesterase 3A, sequence (Q14432 whole entry): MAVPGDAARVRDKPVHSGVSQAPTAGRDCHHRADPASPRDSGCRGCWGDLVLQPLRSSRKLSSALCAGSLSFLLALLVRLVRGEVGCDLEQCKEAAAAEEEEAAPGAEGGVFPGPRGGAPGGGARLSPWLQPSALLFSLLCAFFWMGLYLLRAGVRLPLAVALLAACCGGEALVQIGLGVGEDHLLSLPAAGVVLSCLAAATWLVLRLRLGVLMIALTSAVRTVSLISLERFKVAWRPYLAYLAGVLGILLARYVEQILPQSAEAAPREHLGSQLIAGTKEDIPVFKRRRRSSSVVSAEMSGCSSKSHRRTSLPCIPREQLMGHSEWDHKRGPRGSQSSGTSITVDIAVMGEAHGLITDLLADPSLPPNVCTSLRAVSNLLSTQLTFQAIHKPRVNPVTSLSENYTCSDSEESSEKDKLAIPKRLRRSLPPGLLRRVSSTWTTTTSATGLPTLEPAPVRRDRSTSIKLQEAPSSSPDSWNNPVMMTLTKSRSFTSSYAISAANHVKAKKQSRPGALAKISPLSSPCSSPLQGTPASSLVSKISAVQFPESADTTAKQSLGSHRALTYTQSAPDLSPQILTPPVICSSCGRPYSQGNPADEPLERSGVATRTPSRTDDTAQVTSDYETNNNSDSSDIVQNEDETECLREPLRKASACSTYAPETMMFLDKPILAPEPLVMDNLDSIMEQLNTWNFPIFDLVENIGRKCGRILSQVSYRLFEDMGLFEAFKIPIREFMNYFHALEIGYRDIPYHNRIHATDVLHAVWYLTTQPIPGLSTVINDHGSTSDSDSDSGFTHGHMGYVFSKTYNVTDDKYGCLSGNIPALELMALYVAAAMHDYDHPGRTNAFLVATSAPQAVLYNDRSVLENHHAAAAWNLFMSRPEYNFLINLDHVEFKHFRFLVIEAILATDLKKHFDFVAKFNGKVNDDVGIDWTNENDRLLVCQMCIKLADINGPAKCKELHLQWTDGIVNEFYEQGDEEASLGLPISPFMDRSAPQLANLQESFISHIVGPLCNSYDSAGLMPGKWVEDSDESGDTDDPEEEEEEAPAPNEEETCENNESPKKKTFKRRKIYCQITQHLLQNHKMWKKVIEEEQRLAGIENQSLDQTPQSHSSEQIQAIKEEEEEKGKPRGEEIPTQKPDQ
Muscarinic acetylcholine receptor M3, sequence (P20309 whole entry): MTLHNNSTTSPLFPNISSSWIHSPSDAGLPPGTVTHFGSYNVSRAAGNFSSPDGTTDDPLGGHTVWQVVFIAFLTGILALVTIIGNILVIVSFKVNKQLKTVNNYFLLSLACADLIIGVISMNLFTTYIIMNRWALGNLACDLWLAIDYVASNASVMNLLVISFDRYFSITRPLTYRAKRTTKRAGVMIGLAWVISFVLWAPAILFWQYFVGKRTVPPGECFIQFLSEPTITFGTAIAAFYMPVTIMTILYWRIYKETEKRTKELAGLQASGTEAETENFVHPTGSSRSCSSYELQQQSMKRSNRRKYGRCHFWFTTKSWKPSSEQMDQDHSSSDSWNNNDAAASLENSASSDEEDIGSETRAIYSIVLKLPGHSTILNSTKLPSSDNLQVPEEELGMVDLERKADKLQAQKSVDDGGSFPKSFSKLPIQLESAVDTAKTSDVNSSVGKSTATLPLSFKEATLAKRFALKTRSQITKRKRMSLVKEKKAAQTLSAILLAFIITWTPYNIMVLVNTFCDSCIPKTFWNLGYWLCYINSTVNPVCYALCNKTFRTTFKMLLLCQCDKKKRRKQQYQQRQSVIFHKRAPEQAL

One may read the AC50 as the concentration at which the activity in the assay is half-maximal. Read a high AC50 as weaker potency. Take `CC[C@@H](C(N)=O)N1CCCC1=O`: the AC50 (in [1]; in [2]; in [3]; at Vasopressin V1a receptor; in [4]; at D(1A) dopamine receptor) was greater than 30 µM in each case. The AC50 (in [5]; in [6]; on Adenosine receptor A1; at Motilin receptor; in test [7]) was greater than 30 µM each time.
On to `CCC(CC)(CC(=O)Nc1cccc(/C=C/c2nc(C3CCC3)cs2)c1)C(=O)O`, for which the AC50 (in test [3]; at Vasopressin V1a receptor; in test [6]; on Adenosine receptor A1; at Motilin receptor; in test [7]) was greater than 30 µM each time.
As to `CC(=O)c1ccc2c(c1)N(CCCN(C)C)c1ccccc1S2` [ACEPROMAZINE], the AC50 on D(1A) dopamine receptor was greater than 30 µM.
For the compound `CCCC1O[C@@H]2C[C@H]3[C@@H]4CCC5=CC(=O)C=C[C@]5(C)[C@H]4[C@@H](O)C[C@]3(C)[C@]2(C(=O)CO)O1` (stereo not given in full) [BUDESONIDE], the AC50 is greater than 30 µM in test [2]; greater than 10 µM in [3]; greater than 10 µM at Vasopressin V1a receptor; greater than 10 µM in test [4]; greater than 10 µM at D(1A) dopamine receptor; greater than 10 µM in test [6]. Further, the AC50 (on Adenosine receptor A1; on Motilin receptor; in test [7]) was greater than 10 µM throughout.
Regarding `C=CCN1C[C@H](C(=O)N(CCCN(C)C)C(=O)NCC)C[C@@H]2c3cccc4[nH]cc(c34)C[C@H]21` [CABERGOLINE], the AC50 in [1] was greater than 30 µM; in test [2], greater than 30 µM; in test [3], greater than 10 µM; at Vasopressin V1a receptor, greater than 10 µM; in test [4], 0.3 µM; at D(1A) dopamine receptor it was 0.0367 µM. In addition, the AC50 (in [6]; on Adenosine receptor A1; on Motilin receptor; in [7]) was greater than 10 µM each time.
As to `NC1CCN(c2c(F)cc3c(=O)c(C(=O)O)cn(C4CC4)c3c2Cl)C1` (stereo not given) [CLINAFLOXACIN], in test [1], the AC50 is 250 µM.
`CN1CCN(C2=Nc3ccccc3Sc3ccc(Cl)cc32)CC1` [CLOTHIAPINE]: the AC50 in test [1] was 2 µM; in test [2], greater than 30 µM; in test [4], 2.1 µM; on D(1A) dopamine receptor, greater than 30 µM; in test [5] it was 1.3 µM.
For the compound `CCOc1ccc(Cc2cc([C@@H]3O[C@H](CO)[C@@H](O)[C@H](O)[C@H]3O)ccc2Cl)cc1` [DAPAGLIFLOZIN], the AC50 is greater than 30 µM in test [1]; greater than 30 µM in test [2]; greater than 30 µM in test [3]; greater than 30 µM on Vasopressin V1a receptor; greater than 10 µM in [4]; greater than 10 µM in test [5]. Also, the AC50 in [6] was greater than 30 µM; at Adenosine receptor A1, greater than 30 µM; on Motilin receptor, greater than 10 µM; in test [7], greater than 30 µM.
With `CN(C)CC/C=C1\c2ccccc2CSc2ccccc21` [DOTHIEPIN], the AC50 in test [2] is greater than 30 µM; in test [3], greater than 30 µM; on Vasopressin V1a receptor, greater than 30 µM; in test [4], 9.8 µM; on D(1A) dopamine receptor, greater than 30 µM; in [5], 1.3 µM. Further, the AC50 (in test [6]; at Adenosine receptor A1; at Motilin receptor; in test [7]) was greater than 30 µM throughout.
Take `CC[C@H]1CN2CCc3cc(OC)c(OC)cc3[C@@H]2C[C@@H]1C[C@H]1NCCc2cc(OC)c(OC)cc21` [EMETINE]: the AC50 in test [2] was greater than 30 µM; in test [3] it was greater than 30 µM; on Vasopressin V1a receptor, greater than 30 µM; in test [4] it was 0.23 µM; on D(1A) dopamine receptor, greater than 30 µM; in test [6], greater than 30 µM. In addition, the AC50 (on Adenosine receptor A1; at Motilin receptor; in test [7]) was greater than 30 µM in each case.
As to `Cc1cc(C)c(NC(=O)CN(CC(=O)O)CC(=O)O)c(C)c1Br` [MEBROFENIN], the AC50 (in test [1]; in test [2]; in test [4]; on D(1A) dopamine receptor; in test [5]) was greater than 30 µM in each case.
As to `COc1ccccc1N1CCN(CC(O)COc2cccc3ccccc23)CC1` (stereo not given) [NAFTOPIDIL], the AC50 was greater than 30 µM in test [1]; greater than 30 µM in [2]; 0.2 µM in test [4]; greater than 30 µM on D(1A) dopamine receptor; 0.3 µM in test [5]; greater than 30 µM in test [7].
Regarding `COc1cc2nc(N3CCN(C(=O)c4ccco4)CC3)nc(N)c2cc1OC` [PRAZOSIN], the AC50 in [2] was greater than 30 µM; in [3], greater than 30 µM; on Vasopressin V1a receptor, greater than 10 µM; on D(1A) dopamine receptor, greater than 10 µM; in test [6] it was greater than 30 µM; on Adenosine receptor A1 it was greater than 30 µM. Also, the AC50 on Motilin receptor was greater than 10 µM; in test [7], greater than 30 µM.
As for `O=[N+]([O-])c1cn2c(n1)OC[C@@H](OCc1ccc(OC(F)(F)F)cc1)C2` [PRETOMANID], the AC50 is greater than 10 µM in test [1]; greater than 10 µM in test [2]; greater than 30 µM in test [3]; greater than 10 µM on Vasopressin V1a receptor; greater than 10 µM in test [4]; greater than 10 µM in test [5]. The AC50 is greater than 30 µM in test [6], greater than 30 µM on Adenosine receptor A1 and greater than 10 µM at Motilin receptor.
`Cc1oc(=O)oc1CN1CCN(c2cc3c(cc2F)c(=O)c(C(=O)O)c2n3C(C)S2)CC1` (stereo not given) [PRULIFLOXACIN]: the AC50 (in test [1]; in test [2]; in [4]; on D(1A) dopamine receptor; in test [5]) was greater than 30 µM each time.
On to `COC1=C(OC)C(=O)C(C/C=C(\C)CC/C=C(\C)CC/C=C(\C)CC/C=C(\C)CC/C=C(\C)CC/C=C(\C)CC/C=C(\C)CC/C=C(\C)CC/C=C(\C)CCC=C(C)C)=C(C)C1=O` [UBIDECARENONE], for which the AC50 (in test [1]; in [2]; in test [4]; on D(1A) dopamine receptor; in test [5]) was greater than 30 µM throughout.
